Data published in patent US6183953A, “Chromosomal mutagenesis in Pichia methanolica” (ZymoGenetics, Inc., priority 1997, dated 2001).

Tested on: P. methanolica cells (strain CBS6515, UV-mutagenized)
Assay: Nystatin enrichment for auxotrophic mutants; titering of nystatin-treated versus control cells for colony forming units
Assay type: cell-based, Pichia methanolica
Conditions: 1 mg nystatin added to the remainder of a 500 ml culture in minimal broth with 5 g/L ammonium sulfate, incubated 1 hour with shaking
Procedure: Large-scale mutagenesis was then carried out using a 2-second UV exposure to provide about 20% killing. Cells were plated at approximately 10^4 cells/plate onto eight YEPD plates that were supplemented with 100 mg/L each of uracil, adenine, and leucine, which were added to supplement the growth of potential auxotrophs having the cognate deficiencies. Following UV exposure the plates were wrapped in foil and incubated overnight at 30° C. The following day the colonies on the plates (^~ 10^5 total) were resuspended in water and washed once with water. An amount of cell suspension sufficient to give an OD600 of 0.1-0.2 was used to inoculate 500 ml of minimal broth made with yeast nitrogen base without amino acids or ammonia, supplemented with 1% glucose and 400 μg/L biotin. The culture was placed in a 2.8 L baffled Bell flask and shaken vigorously overnight at 30° C. The following day the cells had reached an OD600 of ^~ 1.0-2.0. The cells were pelleted and resuspended in 500 ml of minimal broth supplemented with 5 g/L ammonium sulfate. The cell suspension was placed in a 2.8 L baffled Bell flask and shaken vigorously at 30° C. for 6 hours. 50 ml of the culture was set aside in a 250-ml flask as a control, and to the remainder of the culture was added 1 mg nystatin (Sigma Chemical Co., St. Louis, Mo.) to select for auxotrophic mutants (Snow, Nature 211:206-207, 1966). […]

## C[C@@H]1[C@H](O)[C@@H](C)/C=C/C=C/CC/C=C/C=C/C=C/C=C/C(O[C@H]2O[C@H](C)[C@@H](O)[C@H](N)[C@@H]2O)CC2O[C@](O)(CC(O)C(O)CCC(O)CC(O)CC(O)CC(=O)O[C@H]1C)CC(O)C2C(=O)O (stereo partly shown) [nystatin]
  decrease in the number of viable cells (colony forming units), factor versus control cells: 10^4
